Test results: US12492173B2, “Herbicidal substituted N-tetrazolyl aryl carboxamides” (Bayer Aktiengesellschaft, priority 2019, dated 2025)

Tests used:
Type in all cases: in vivo
[1] = test system: Digitaria sanguinalis; test: Pre-emergence herbicidal action, DIGSA; settings: dosage 320 g/ha, scored visually after 3 weeks vs untreated controls (100% = plants have died)
Text: (§1) 1. Pre-Emergence Herbicidal Action Against Harmful Plants Seeds of monocotyledonous and dicotyledonous weed plants and crop plants are laid out in sandy loam soil in wood-fiber pots and covered with soil. The compounds of the invention, formulated in the form of wettable powders (WP) or as emulsion concentrates (EC), are then applied to the surface of the covering soil in the form of an aqueous suspension or emulsion at a water application rate equating to 600 to 800 l/ha, with addition of 0.2% wetting agent. After the treatment, the pots are placed in a greenhouse and kept under good growth conditions for the trial plants. The damage to the test plants is scored visually after a test period of 3 weeks by comparison with untreated controls (herbicidal activity in percent (%): 100% activity=the plants have died, 0% activity=like control plants). […] The tables below illustrate, in an exemplary manner, the […] herbicidal action of the compounds according to the invention, the herbicidal activity being stated in percent. [table] In the experiments that follow, herbicidal action of numerous inventive compounds and the known compounds that are structurally closest from D1 (WO 2012/028579 A1) and D2 (WO 2018/202535 A1) were compared under the above-specified conditions by the pre-emergence and post-emergence method. The example numbers given in the tables relate to the compounds disclosed in the respective documents. In addition to the compounds disclosed in D1 and D2, the following compounds V-1 to V-14 that are encompassed by D1 or D2 but are not compounds specified therein were used in the comparative experiments: • V-1: 2-(methylsulfanyl)-3-(methylsulfinyl)-N-(1-methyl-1H-tetrazol-5-yl)-4-(trifluoromethyl)benzamide • V-2: 2-(methylsulfanyl)-3-(methylsulfonyl)-N-(1-methyl-1H-tetrazol-5-yl)-4-(trifluoromethyl)benzamide • V-3: 2,3-bis(ethylsulfanyl)-N-(1-methyl-1H-tetrazol-5-yl)-4-(trifluoromethyl)benzamide • V-4: 2-chloro-3-(ethylsulfanyl)-N-(1-methyl-1H-tetrazol-5-yl)-4-(trifluoromethyl)benzamide • V-5: 2-chloro-4-iodo-3-(methylsulfanyl)-N-(1-methyl-1H-tetrazol-5-yl)benzamide • V-6: 2-chloro-4-iodo-3-(methylsulfinyl)-N-(1-methyl-1H-tetrazol-5-yl)benzamide • V-7: 2-chloro-4-iodo-3-(methylsulfonyl)-N-(1-methyl-1H-tetrazol-5-yl)benzamide • V-8: 2-bromo-3-(methylsulfanyl)-N-(1-methyl-1H-tetrazol-5-yl)-4-(trifluoromethyl)benzamide • V-9: 2-bromo-3-(methylsulfinyl)-N-(1-methyl-1H-tetrazol-5-yl)-4-(trifluoromethyl)benzamide • V-10: 2-bromo-3-(methylsulfonyl)-N-(1-methyl-1H-tetrazol-5-yl)-4-(trifluoromethyl)benzamide • V-11: 2-bromo-3-(ethylsulfanyl)-N-(1-methyl-1H-tetrazol-5-yl)-4-(trifluoromethyl)benzamide • V-12: 2-bromo-3-(ethylsulfinyl)-N-(1-methyl-1H-tetrazol-5-yl)-4-(trifluoromethyl)benzamide • V-13: 2-bromo-3-(ethylsulfonyl)-N-(1-methyl-1-1H-tetrazol-5-yl)-4-(trifluoromethyl)benzamide • V-14: 2-cyclopropyl-3-(ethylsulfanyl)-N-(1-methyl-1H-tetrazol-5-yl)-4-(trifluoromethyl)benzamide Herbicidal Pre-Emergence Action: […]

[2] = test system: Lolium rigidum; test: Pre-emergence herbicidal action, LOLRI; settings: dosage 320 g/ha, scored visually after 3 weeks vs untreated controls (100% = plants have died)
Text: as §1

[3] = test system: Digitaria sanguinalis; test: Post-emergence herbicidal action, DIGSA; design: key: % herbicidal action: 100 = plants died, 0 = like control
Description: (§2) [table] 2. Post-Emergence Herbicidal Action Against Harmful Plants Seeds of monocotyledonous and dicotyledonous weed and crop plants are laid out in sandy loam soil in wood-fiber pots, covered with soil and cultivated in a greenhouse under good growth conditions. 2 to 3 weeks after sowing, the test plants are treated at the one-leaf stage. The compounds of the invention, formulated in the form of wettable powders (WP) or as emulsion concentrates (EC), are then sprayed onto the green parts of the plants in the form of an aqueous suspension or emulsion at a water application rate equating to 600 to 800 l/ha, with addition of 0.2% wetting agent. After the test plants have been left to stand in the greenhouse under optimal growth conditions for about 3 weeks, the action of the preparations is assessed visually in comparison to untreated controls (herbicidal action in percent (%): 100% activity=the plants have died, 0% activity=like control plants). […] The tables below illustrate, in an exemplary manner, the post-emergence herbicidal action of the compounds according to the invention, the herbicidal activity being stated in percent. In the experiments that follow, herbicidal action of numerous inventive compounds and the known compounds that are structurally closest from D1 (WO 2012/028579 A1) and D2 (WO 2018/202535 A1) were compared under the above-specified conditions by the pre-emergence and post-emergence method. The example numbers given in the tables relate to the compounds disclosed in the respective documents. In addition to the compounds disclosed in D1 and D2, the following compounds V-1 to V-14 that are encompassed by D1 or D2 but are not compounds specified therein were used in the comparative experiments: • V-1: 2-(methylsulfanyl)-3-(methylsulfinyl)-N-(1-methyl-1H-tetrazol-5-yl)-4-(trifluoromethyl)benzamide • V-2: 2-(methylsulfanyl)-3-(methylsulfonyl)-N-(1-methyl-1H-tetrazol-5-yl)-4-(trifluoromethyl)benzamide • V-3: 2,3-bis(ethylsulfanyl)-N-(1-methyl-1H-tetrazol-5-yl)-4-(trifluoromethyl)benzamide • V-4: 2-chloro-3-(ethylsulfanyl)-N-(1-methyl-1H-tetrazol-5-yl)-4-(trifluoromethyl)benzamide • V-5: 2-chloro-4-iodo-3-(methylsulfanyl)-N-(1-methyl-1H-tetrazol-5-yl)benzamide • V-6: 2-chloro-4-iodo-3-(methylsulfinyl)-N-(1-methyl-1H-tetrazol-5-yl)benzamide • V-7: 2-chloro-4-iodo-3-(methylsulfonyl)-N-(1-methyl-1H-tetrazol-5-yl)benzamide • V-8: 2-bromo-3-(methylsulfanyl)-N-(1-methyl-1H-tetrazol-5-yl)-4-(trifluoromethyl)benzamide • V-9: 2-bromo-3-(methylsulfinyl)-N-(1-methyl-1H-tetrazol-5-yl)-4-(trifluoromethyl)benzamide • V-10: 2-bromo-3-(methylsulfonyl)-N-(1-methyl-1H-tetrazol-5-yl)-4-(trifluoromethyl)benzamide • V-11: 2-bromo-3-(ethylsulfanyl)-N-(1-methyl-1H-tetrazol-5-yl)-4-(trifluoromethyl)benzamide • V-12: 2-bromo-3-(ethylsulfinyl)-N-(1-methyl-1H-tetrazol-5-yl)-4-(trifluoromethyl)benzamide • V-13: 2-bromo-3-(ethylsulfonyl)-N-(1-methyl-1-1H-tetrazol-5-yl)-4-(trifluoromethyl)benzamide • V-14: 2-cyclopropyl-3-(ethylsulfanyl)-N-(1-methyl-1H-tetrazol-5-yl)-4-(trifluoromethyl)benzamide Herbicidal Pre-Emergence Action: […]

[4] = test system: Hordeum murinum; test: Post-emergence herbicidal action, HORMU; design: key: % herbicidal action: 100 = plants died, 0 = like control; settings: post-emergence, dosage 80 g/ha
Description: as §2

[5] = test system: Lolium rigidum; test: Post-emergence herbicidal action, LOLRI; settings: dosage 80 g/ha
Description: as §2

[6] = test system: Cyperus esculentus; test: Pre-emergence herbicidal action, CYPES; design: key: % activity: 100 = plants have died, 0 = like control plants; settings: comparative experiment, 20 g of a.i./ha
In short: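 Greenhouse pre-emergence test: formulated compound (WP or EC) applied in water to the soil covering sown seeds, 600–800 l/ha, 0.2% wetting agent. Scored visually in percent at 3 weeks versus untreated plants.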

Structure (SMILES)	herbicidal activity DIGSA [1] [%]	herbicidal activity LOLRI [2] [%]	herbicidal action DIGSA ([3]; post-emergence, dosage 80 g/ha) [%]	herbicidal action HORMU [4] [%]	herbicidal action LOLRI [5] [%]	herbicidal action DIGSA ([3]; Dosage 80 g/ha)	Herbicidal action against CYPES [6]
CC[S+]([O-])Cc1c(C(F)(F)F)ccc(C(=O)Nc2nnnn2C)c1Cl (racemic) [Example 1-300]	100	100	100	90	90	–	–
Cn1nnnc1NC(=O)c1ccc(C(F)(F)F)c(C[S+]([O-])C2CC2)c1Cl (racemic) [Example 1-303]	–	100	–	100	90	–	–
COCC[S+]([O-])Cc1c(C(F)(F)F)ccc(C(=O)Nc2nnnn2C)c1Cl (racemic) [Example 1-306]	100	90	–	–	–	100	–
Cn1nnnc1NC(=O)c1ccc(C(F)(F)F)c(C[S+]([O-])CC(F)(F)F)c1Cl (racemic) [Example 1-312]	100	90	100	80	–	–	–
Cn1nnnc1NC(=O)c1ccc(I)c(C[S+](C)[O-])c1Cl (racemic) [Example 1-363]	100	100	100	90	80	–	–
CSc1c(C(=O)Nc2nnnn2C)ccc(C(F)(F)F)c1C[S+](C)[O-] (stereo not shown) [Example 1-162]	–	90	–	90	80	–	70
Cn1nnnc1NC(=O)c1ccc(C(F)(F)F)c(CSC2CC2)c1Cl [Example 1-302]	–	100	–	90	90	–	–
Cn1nnnc1NC(=O)c1ccc(C(F)(F)F)c(CS(=O)(=O)C2CC2)c1Cl [Example 1-304]	–	100	–	80	80	–	–
COCCSCc1c(C(F)(F)F)ccc(C(=O)Nc2nnnn2C)c1Cl [Example 1-305]	–	90	–	90	100	–	–
Cn1nnnc1NC(=O)c1ccc(C(F)(F)F)c(CSCC2CC2)c1Cl [Example 1-314]	–	100	–	100	90	–	–
Cn1nnnc1NC(=O)c1ccc(C(F)(F)F)c(CS(=O)(=O)CC2CC2)c1Cl [Example 1-316]	100	90	–	–	–	100	–
CSCc1c(I)ccc(C(=O)Nc2nnnn2C)c1Cl [Example 1-362]	–	80	–	100	80	–	80
Cn1nnnc1NC(=O)c1ccc(I)c(CS(C)(=O)=O)c1Cl [Example 1-364]	100	80	–	–	–	100	–
CCn1nnnc1NC(=O)c1ccc(C(F)(F)F)c(C[S+]([O-])CC)c1Cl (stereo not shown) [Example 2-300]	100	100	100	90	80	–	–
CCn1nnnc1NC(=O)c1ccc(C(F)(F)F)c(CSCCOC)c1Cl [Example 2-305]	–	100	–	100	80	–	–
CCn1nnnc1NC(=O)c1ccc(C(F)(F)F)c(C[S+]([O-])CC2CC2)c1Cl (stereo not shown) [Example 2-315]	100	90	–	–	–	100	–
CCn1nnnc1NC(=O)c1ccc(C(F)F)c(C[S+]([O-])CC)c1Cl (stereo not shown) [Example 2-324]	100	90	100	90	–	–	–
CCCn1nnnc1NC(=O)c1ccc(C(F)(F)F)c(C[S+](C)[O-])c1SC (stereo not shown) [Example 3-162]	–	90	–	90	80	–	–
CCCn1nnnc1NC(=O)c1ccc(C(F)F)c(CSC)c1SC [Example 3-170]	100	–	–	–	–	100	–
CCCn1nnnc1NC(=O)c1ccc(C(F)F)c(C[S+](C)[O-])c1SC (stereo not shown) [Example 3-171]	100	–	–	–	–	90	–
CCCn1nnnc1NC(=O)c1ccc(C(F)F)c(CS(C)(=O)=O)c1SC [Example 3-172]	100	–	–	–	–	90	–
